The target in experiment [1] is T1, recombinant human PDGFRα (D842V) (Homo sapiens, UniProt P16234, D842V).
T1 construct: purchased Signalchem
As to the kind of experiment: PDGFRα (D842V) Kinase Assay (ADP-Glo). Type of experiment: biochemical. The following applies: In vitro kinase activity. The procedure:
ADP-Glo assay kit was purchased from Promega. Magnesium chloride (MgCl2), ethylene glycol-bis(p-aminoethyl ether)-N, N, N′, N′-tetraacetic acid (EGTA), bovine serum albumin (BSA), 1,4-dithiothreitol (DTT) and dimethyl sulfoxide (DMSO) were purchased from Sigma-Aldrich. HEPES buffer was purchased from Gibco. PDGFRα (D842V) Kinase and poly (4:1 Glu, Tyr) peptide were purchased from Signalchem.
(§1) PDGFRα (D842V) kinase activity was measured by Promega's ADP-Glo™ Assay. In this assay, 10 ng of recombinant human PDGFRα (D842V) is incubated with 5 μL of compounds (0.5% DMSO), 5 μL of Poly (4:1 Glu, Tyr) peptide (100 ng/μl) and 5 μL of ATP (3 pM) in buffer (50 mM HEPES, pH7.5; 10 mM MgCl2; 1 mM EGTA; 0.05% BSA; 50pM DTT). The assay was started by incubating the reaction mixture in a 96-well plate at 30° C. for 120-min. After the incubation, 25 μL ADP-Glo reagent was added and the reaction was incubated at room temperature for 40-min to stop the reaction and degrade residual ATP. The ADP product was then converted to ATP by adding 50 μL per well of detection reagent. Luminescence was detected after 30-min room temperature incubation with the Molecular device I3X plate reader. The IC50 values were calculated from a series of percent inhibition values determined at a range of inhibitor concentration using software routines as implemented in the GraphPad Prism 8 software and Sigma Plot 13.0.

The next experiment has as its target T2, recombinant human c-Kit (Homo sapiens, UniProt P10721).
T2 construct: purchased Signalchem
As to the kind of experiment: c-Kit Kinase Assay (ADP-Glo). Type of experiment: biochemical. Particulars: In vitro kinase activity. The procedure: ADP-Glo assay kit was purchased from Promega. Magnesium chloride (MgCl2), ethylene glycol-bis([…] ether)-N,N,N′,N′-tetraacetic acid (EGTA), manganese (II) chloride (MnCl2), bovine serum albumin (BSA), 1,4-dithiothreitol (DTT) and dimethyl sulfoxide (DMSO) were purchased from Sigma-Aldrich. HEPES buffer was purchased from Gibco. c-Kit kinase and poly (4:1 Glu, Tyr) peptide were purchased from Signalchem.
as §1, with “c-Kit” for “PDGFRα (D842V)”, “100ng” for “10 ng”, “(50” for “(100”, “(50 μM)” for “(3 pM)”, “50μM DTT; 2mM MnCl2).” for “50pM DTT).”

The test system of experiment [2] is K562 human leukemia cell line. Kind of experiment: K562 Cell Proliferation Assay (MTS). Type of experiment: cell-based. Particulars: K562 cells, 48 hr incubation, MTS cell viability. The procedure:
K562 human leukemia cell line purchased from Korean cell line bank (KCLB) and were cultured in Roswell Park Memorial Institute (RPMI) 1640 Medium supplemented with 10% fetal bovine serum (FBS) and 1% penicillin-streptomycin in a humidified incubator in an atmosphere of 5% CO2 at 37° C. Cells were seeded in 96-well plates at a density of 2×10^3 cells/well in 100 […] media. Compounds were diluted as two times concentration in 100 μl of media and added to each well. Compounds were 5-fold serially diluted for 6 points and treated from 5 μM to 1.6 nM in K562 cells. After 48 hr incubation, Compound treated cells were analyzed for anti-proliferation assay. Cell viability was investigated using the Cell Titer 96 Aqueous One Solution Reagent. Briefly, 200 μl of media were supplemented with 40 μl of MTS solution, incubated for 4hr, and then the absorbance was recorded at 490 nm with a 96-well plate reader. G150 values were calculated from a series of percent of cell viability at a range of compound concentration. GraphPad Prism 8 software or SigmaPlot 13.0 was used to generate G150 values.

In experiment [3] the target is T3, recombinant human c-Kit (D816V) (Homo sapiens, UniProt P10721, D816V).
T3 construct: purchased Signalchem
Kind of experiment: c-Kit (D816V) Kinase Assay (ADP-Glo). Type of experiment: biochemical. Particulars: In vitro kinase activity. The procedure:
ADP-Glo assay kit was purchased from Promega. Magnesium chloride (MgCl2), ethylene glycol-bis(β-aminoethyl ether)-N,N,N′,N′-tetraacetic acid (EGTA), bovine serum albumin (BSA), 1,4-dithiothreitol (DTT) and dimethyl sulfoxide (DMSO) were purchased from Sigma-Aldrich. HEPES buffer was purchased from Gibco. c-Kit (D816V) kinase and poly (4:1 Glu, Tyr) peptide were purchased from Signalchem.
as §1, with “c-Kit (D816V)” for “PDGFRα (D842V)”, “ADP-GIoTM” for “ADP-Glo™”, “2.5ng” for “10 ng”, “(50” for “(100”, “(15 μM)” for “(3 pM)”, “50 μM” for “50pM”

A further experiment addresses T4, recombinant human PDGFRα (Homo sapiens, UniProt P16234).
T4 construct: purchased Signalchem
Kind of experiment: PDGFRα Kinase Assay (ADP-Glo). The format is biochemical. Particulars: In vitro kinase activity, read-out: PDGFRa IC50. How it is done:
ADP-Glo assay kit was purchased from Promega. Magnesium chloride (MgCl2), ethylene glycol-bis(p-aminoethyl ether)-N,N,N′,N′-tetraacetic acid (EGTA), bovine serum albumin (BSA), 1,4-dithiothreitol (DTT) and dimethyl sulfoxide (DMSO) were purchased from Sigma-Aldrich. HEPES buffer was purchased from Gibco. PDGFRα Kinase and poly (4:1 Glu, Tyr) peptide were purchased from Signalchem.
as §1, with “PDGFRα” for “PDGFRα (D842V)”, “40ng” for “10 ng”, “([…]” for “(3”, “50 μM” for “50pM”, “60-min.” for “120-min.”
A general note: ADP-Glo first removes unused ATP, then detects ADP through luciferase.

As a reminder, the IC50 is the concentration that gives 50% inhibition.

SMILES strings stand for the structures.

T4 sequence (P16234 24-1089): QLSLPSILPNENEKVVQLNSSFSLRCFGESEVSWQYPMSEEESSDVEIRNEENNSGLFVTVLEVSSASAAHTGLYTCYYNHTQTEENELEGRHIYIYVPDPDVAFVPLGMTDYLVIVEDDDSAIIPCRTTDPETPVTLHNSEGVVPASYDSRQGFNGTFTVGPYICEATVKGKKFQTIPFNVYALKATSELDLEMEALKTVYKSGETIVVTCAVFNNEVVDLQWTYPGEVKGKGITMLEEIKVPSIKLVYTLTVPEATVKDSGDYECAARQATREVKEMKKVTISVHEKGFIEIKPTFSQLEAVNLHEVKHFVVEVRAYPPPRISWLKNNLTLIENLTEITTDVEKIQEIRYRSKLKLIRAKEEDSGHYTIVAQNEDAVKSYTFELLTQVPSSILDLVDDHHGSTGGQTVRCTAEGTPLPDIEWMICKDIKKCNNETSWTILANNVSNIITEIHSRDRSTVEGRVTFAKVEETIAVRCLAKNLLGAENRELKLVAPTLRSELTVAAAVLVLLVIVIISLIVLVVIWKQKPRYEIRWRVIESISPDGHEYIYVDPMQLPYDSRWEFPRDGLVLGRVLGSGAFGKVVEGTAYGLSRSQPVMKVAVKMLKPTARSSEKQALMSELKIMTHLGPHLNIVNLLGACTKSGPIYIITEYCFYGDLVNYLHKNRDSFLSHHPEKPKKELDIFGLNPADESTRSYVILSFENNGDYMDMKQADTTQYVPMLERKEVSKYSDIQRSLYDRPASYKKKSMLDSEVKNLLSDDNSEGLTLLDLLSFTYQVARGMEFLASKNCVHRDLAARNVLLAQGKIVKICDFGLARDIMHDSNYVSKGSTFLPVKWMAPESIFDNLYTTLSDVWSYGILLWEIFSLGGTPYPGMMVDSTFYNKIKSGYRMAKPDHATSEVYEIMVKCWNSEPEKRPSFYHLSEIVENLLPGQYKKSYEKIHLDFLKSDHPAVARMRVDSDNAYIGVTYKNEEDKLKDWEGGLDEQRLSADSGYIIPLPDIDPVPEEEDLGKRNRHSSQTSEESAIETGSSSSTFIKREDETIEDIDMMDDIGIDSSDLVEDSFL
T2 sequence (P10721 26-976): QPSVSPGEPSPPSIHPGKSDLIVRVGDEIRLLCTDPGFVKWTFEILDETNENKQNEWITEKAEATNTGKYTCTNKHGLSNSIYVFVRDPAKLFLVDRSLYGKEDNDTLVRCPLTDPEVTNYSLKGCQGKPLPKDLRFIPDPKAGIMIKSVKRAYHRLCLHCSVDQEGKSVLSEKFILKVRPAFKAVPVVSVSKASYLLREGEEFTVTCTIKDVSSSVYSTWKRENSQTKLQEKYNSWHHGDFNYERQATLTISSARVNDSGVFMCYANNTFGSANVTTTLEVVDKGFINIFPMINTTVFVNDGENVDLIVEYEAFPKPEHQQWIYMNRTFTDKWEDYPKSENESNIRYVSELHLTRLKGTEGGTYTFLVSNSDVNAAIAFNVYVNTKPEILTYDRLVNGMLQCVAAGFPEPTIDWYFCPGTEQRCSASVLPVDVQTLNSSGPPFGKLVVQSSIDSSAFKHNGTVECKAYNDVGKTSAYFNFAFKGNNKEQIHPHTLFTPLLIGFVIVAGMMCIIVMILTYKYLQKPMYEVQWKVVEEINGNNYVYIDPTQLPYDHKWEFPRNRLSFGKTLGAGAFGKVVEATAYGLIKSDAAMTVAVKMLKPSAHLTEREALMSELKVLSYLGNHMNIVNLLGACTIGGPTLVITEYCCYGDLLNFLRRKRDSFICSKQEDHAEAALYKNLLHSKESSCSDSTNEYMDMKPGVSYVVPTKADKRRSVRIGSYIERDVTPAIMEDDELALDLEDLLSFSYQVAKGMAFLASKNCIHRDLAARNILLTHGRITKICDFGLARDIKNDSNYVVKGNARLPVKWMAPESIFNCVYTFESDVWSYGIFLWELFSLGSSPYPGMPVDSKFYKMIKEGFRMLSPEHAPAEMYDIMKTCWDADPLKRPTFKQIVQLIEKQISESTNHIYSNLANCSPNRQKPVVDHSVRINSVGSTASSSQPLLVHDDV
T3 sequence (P10721 26-976 D816V): as the sequence (P10721 26-976) above, with D791V counted along it
T1 sequence (P16234 24-1089 D842V): as the sequence (P16234 24-1089) above, with D819V counted along it

With `O=C(Nc1cn2cc(-c3cccc(F)c3CO)ccc2n1)[C@@H]1C[C@@H]1F` [Example 57, (1 S,2 S)-2-fluoro-N-(6-(3-fluoro-2-(hydroxymethyl)phenyl)imidazo[1,2-a]pyridin-2-yl)cyclopropane-1-carboxamide], the IC50 in experiment [1] was 10 to 100 nM; on recombinant human c-Kit it was greater than 1000 nM; in experiment [2] it was 101 to 1000 nM; in experiment [3], 101 to 1000 nM; at recombinant human PDGFRα, 101 to 1000 nM.
Regarding `CC(=O)c1c(F)cccc1-c1ccc2nc(NC(=O)[C@@H]3C[C@@H]3F)cn2c1` [Example 68, (1 S,2 S)-N-(6-(2-acetyl-3-fluorophenyl)imidazo[1,2-a]pyridin-2-yl)-2-fluorocyclopropanecarboxamide], the concentration for half-maximal inhibition (IC50) (in experiment [1]; at recombinant human c-Kit; in experiment [3]; at recombinant human PDGFRα) was greater than 1000 nM throughout.
`NCc1c(F)cccc1-c1ccc2nc(NC(=O)[C@@H]3C[C@@H]3F)cn2c1` [Example 74, (1 S,2 S)-N-(6-(2-(aminomethyl)-3-fluorophenyl)imidazo[1,2-a]pyridin-2-yl)-2-fluorocyclopropanecarboxamide]: the IC50 (in experiment [1]; on recombinant human c-Kit; in experiment [3]; at recombinant human PDGFRα) was greater than 1000 nM each time.
For `CC(=O)NCc1c(F)cccc1-c1ccc2nc(NC(=O)[C@@H]3C[C@@H]3F)cn2c1` [Example 75, (1 S,2 S)-N-(6-(2-(acetamidomethyl)-3-fluorophenyl)imidazo[1,2-a]pyridin-2-yl)-2-fluorocyclopropanecarboxamide], the IC50 (in experiment [1]; at recombinant human c-Kit; in experiment [3]; at recombinant human PDGFRα) was greater than 1000 nM each time.
As for `CNCc1c(F)cccc1-c1ccc2nc(NC(=O)[C@@H]3C[C@@H]3F)cn2c1` [Example 80, (1 S,2 S)-2-fluoro-N-(6-(3-fluoro-2-((methylamino)methyl)phenyl)imidazo[1,2-a]pyridin-2-yl)cyclopropanecarboxamide], the IC50 (in experiment [1]; on recombinant human c-Kit; in experiment [3]; on recombinant human PDGFRα) was greater than 1000 nM each time.
For the molecule `CC(C)NCc1c(F)cccc1-c1ccc2nc(NC(=O)[C@@H]3C[C@@H]3F)cn2c1` [Example 81, (1 S,2 S)-2-fluoro-N-(6-(3-fluoro-2-((isopropylamino)methyl)phenyl)imidazo[1,2-a]pyridin-2-yl)cyclopropanecarboxamide], the IC50 (in experiment [1]; at recombinant human c-Kit; in experiment [3]; on recombinant human PDGFRα) was greater than 1000 nM each time.
For the molecule `COCCOCc1c(F)cccc1-c1ccc2nc(NC(=O)[C@@H]3C[C@@H]3F)cn2c1` [Example 82], the IC50 in experiment [1] was 101 to 1000 nM; on recombinant human c-Kit it was greater than 1000 nM; in experiment [3] it was greater than 1000 nM; on recombinant human PDGFRα, 101 to 1000 nM.
Consider `O=C(Nc1cn2cc(-c3cccc(F)c3COCCO)ccc2n1)[C@@H]1C[C@@H]1F` [Example 83, (1 S,2 S)-2-fluoro-N-(6-(3-fluoro-2-((2-hydroxyethoxy)methyl)phenyl)imidazo[1,2-a]pyridin-2-yl)cyclopropanecarboxamide], for which the IC50 in experiment [1] was 101 to 1000 nM; at recombinant human c-Kit, greater than 1000 nM; in experiment [3], greater than 1000 nM; at recombinant human PDGFRα, 101 to 1000 nM.

The record behind these values is patent US20220242861A1, “IMIDAZOPYRIDINYL COMPOUNDS AND USE THEREOF FOR TREATMENT OF PROLIFERATIVE DISORDERS” (1ST Biotherapeutics, Inc., priority 2019, published 2022).
